Results: patent US12257227B2, “Combination solution for treating chemotherapy refractory cancer” (1GLOBE BIOMEDICAL CO., LTD., priority 2018, dated 2025)

Columns and labels:
STAT3 pathway = details: according to WO2009/036059; read-out: STAT3 pathway activity, cellular IC50; cited from earlier work
[1] = test system: advanced pancreatic cancer; experiment: Phase II/III open label clinical study in patients who failed previous treatments (RECIST 1.1); assay type: in vivo, human; details: all patients receiving treatment
Excerpt: In a phase II/III extended open label international multicenter experiment, search the effect of the compound of formula (I), 2-acetylnaphtho[2,3-b]furan-4,9-dioen combined with paclitaxel and a low dose of gemcitabine on patients with advanced pancreatic cancer who have failed previous treatments.
In the clinical study, we observed the anti-tumor activity and safety of 2-acetylnaphtho[2,3-b]furan-4,9-dione combined with paclitaxel weekly and a low dose of gemcitabine in patients with advanced pancreatic cancer who failed previous treatment. There are imaging disease progressions in patients who have received at least first-line systemic treatment in the past and failed. Previous treatments include gemcitabine-based single-agent or combination chemotherapy, and/or FOLFIRINOX/mFOLFIRINOX chemotherapy. […]
The remission and progression of the tumor were evaluated according to the RECIST 1.1 standard. […]

p-STAT3 and β-catenin = experiment: Immunofluorescence of cancer stem cell markers in xenograft tumors; assay type: in vivo, mice; details: FIG. 5; tumors collected 24 hours after first dose; e.g. 50 mg/kg BID oral gavage
Method: Detection of the effects of 2-acetylnaphtho[2,3-b]furan-4,9-dione with or without paclitaxel on cancer stem cells for cancer stem cell markers in cancer xenograft animal models.
Human cancer cells were implanted subcutaneously into the right abdomen of 5 to 7 weeks athymic nude mice. When the tumor size reaches 200 mm^3, administer 2-acetylnaphtho[2,3-b]furan-4,9-dione (for example, 50 mg/kg (BID) by oral gavage (n=3/group)), paclitaxel, or 2-acetylnaphtho[2,3-b]furan-4,9-dione combined with paclitaxel to treat animals. Tumors were collected 24 hours after the first dose.
The harvested tissues were fixed in 3.7% neutral buffered formaldehyde at 4° C. overnight. Paraffin embedding were performed. Cut those into approximately 5 microns and fix them on positively charged glass slides. After baking and deparaffinization, the slides with tumor or control tissue were incubated in 10 mM sodium citrate (pH 6.0) for 10 minutes. After antigen retrieval, use primary antibody P-STAT3 (Rabbit, Cell Signaling, 1:100), β-catenin (Mouse, Santa Cruz, 1:400) to label slides overnight at 4° C., and then use Alexa Fluor Fluorescent dye-conjugated secondary antibody (1:500, Invitrogen). After mounting, the glass slides containing DAPI (Invitrogen) with Prolong mounting medium were detected under the 20× objective lens of a Zeiss fluorescence microscope, and analyzed with Zen software.

[2] = test system: human pancreatic adenocarcinoma (Panc-1); experiment: Xenograft tumor mouse model, tumor size during treatment; assay type: in vivo, mice; details: FIG. 4; 2-acetylnaphtho[2,3-b]furan-4,9-dione 100 mg/kg PO bid; gemcitabine 80 mg/kg IV q3d; mean of five tumors
Method: The effects of 2-acetylnaphtho[2,3-b]furan-4,9-dione, the compound of formula (I), gemcitabine, and a combination of 2-acetylnaphtho[2,3-b]furan-4,9-dione and gemcitabine were studied. Specifically, immunosuppressed mice with established human pancreatic adenocarcinoma (Panc-1) were treated with vehicle control, 2-acetylnaphtho[2,3-b]furan-4,9-dione (100 mg/kg, PO, bid), gemcitabine (Gemzar, 80 mg/kg, IV, q3d), or the combination of 2-acetylnaphtho[2,3-b]furan-4,9-dione and gemcitabine. Tumor size was evaluated periodically during treatment. Each point represents the mean±SEM of five tumors.

Compound	IC50 (STAT3 pathway) [µM]	adverse events related to the compound [1]	expression (staining) of stem cell markers p-STAT3 and β-catenin (p-STAT3 and β-catenin)	tumor growth (tumor volume) [2]
CC(=O)c1cc2c(o1)C(=O)c1ccccc1C2=O [2-acetylnaphtho[2,3-b]furan-4,9-dione]	~0.25	mainly gastrointestinal adverse events	significantly reduce the expression of stem cell markers p-STAT3 and β-catenin	showed certain effects in inhibiting tumor growth
Nc1ccn([C@@H]2O[C@H](CO)[C@@H](O)C2(F)F)c(=O)n1 [gemcitabine, reference compound]				showed certain effects in inhibiting tumor growth
CC(=O)O[C@H]1C(=O)[C@@]2(C)[C@H]([C@H](OC(=O)c3ccccc3)[C@]3(O)C[C@H](OC(=O)[C@H](O)[C@@H](NC(=O)c4ccccc4)c4ccccc4)C(C)=C1C3(C)C)[C@]1(OC(C)=O)CO[C@@H]1C[C@@H]2O [paclitaxel, reference compound]			increased staining of stem cell markers	
